Experimental data as given in patent US20260027068A1, “METHODS OF ADM[…]-KETAMINE” (Perception Neuroscience, Inc., priority 2022, published 2026).

Assays:
[1] = Diastolic blood pressure (vital signs)
Protocol: The Investigational Medicinal Product (IMP) R(−)-ketamine hydrochloride in sterile water for intravenous injection was investigated as an […] treatment of TRD. The International Union of Pure and Applied Chemistry (IUPAC) name is of the IMP is (2R)-2-(2-chlorophenyl)-2-(methylamino)cyclohexan-1-one. Subjects received the solution at either 30 mg or 60 mg dose, or a placebo. The IMP or placebo was administered on Day 1 as a single IV infusion via an electronic infusion pump over 40 minutes. The duration of study participation for each subject was up to 29 days including a screening period, a 3-day in-clinic visit, and 2 follow-up visits. 101 subjects were enrolled in approximately 20 study centers in the EU and the US.
Tympanic or temporal temperature, heart rate, blood pressure (SBP/DBP), respiratory rate, and SpO2 were assessed. Blood pressure and pulse measurements will be assessed with a completely automated device while the subject is supine or semi-supine. Manual techniques will be used only if an automated device is not available. Blood pressure and pulse measurements should be preceded by at least 5 minutes of rest for the subject in a quiet setting without distractions (e.g., television, cell phones). An abnormal blood pressure value at screening may be repeated once after 5 minutes of relaxation to determine the subject's eligibility. Blood pressure was recorded using the same arm and position (supine or semi-supine) throughout the study, where possible. Vital signs (to be taken before blood collection for laboratory tests) consisted of 1 pulse and 3 blood pressure measurements (3 consecutive blood pressure readings will be recorded at intervals of at least 1 minute). The average of the 3 blood pressure readings was recorded in the CRF. A pulse oximeter was used to measure peripheral capillary oxygen saturation (SpO2) continuously from pre-dose until 4-hours post-dose. A pulse oximeter was clipped onto the finger or foot of the subject, and light will be sent through the finger or foot and measured on the other side.
In these tables, baseline value is defined as the last non-missing value prior to study drug administration.

[2] = system: CYP3A4; assay: In vitro CYP induction

CN[C@@]1(c2ccccc2Cl)CCCCC1=O.Cl [R(−)-ketamine, (2R)-2-(2-chlorophenyl)-2-(methylamino)cyclohexan-1-one]
Subjects with change from baseline diastolic blood pressure >25 mmHg, number ([1]; 30 mg): 1 n
Subjects with change from baseline diastolic blood pressure >25 mmHg, percent ([1]; 30 mg): 3.0%
Subjects with post-baseline diastolic blood pressure >110 mmHg, number ([1]; 30 mg): 0 n
Subjects with post-baseline diastolic blood pressure >110 mmHg, percent ([1]; 30 mg): 0.0%
Diastolic Blood Pressure: Mean ([1]; 30 mg, Day 1, 15 minutes): 77.4 mmHg
Diastolic Blood Pressure: Median ([1]; 30 mg, Day 1, 15 minutes): 79.0 mmHg
Diastolic Blood Pressure: Mean ([1]; 30 mg, Day 1, 40 minutes): 77.7 mmHg
Diastolic Blood Pressure: Median ([1]; 30 mg, Day 1, 40 minutes): 81.0 mmHg
Diastolic Blood Pressure: Mean ([1]; 30 mg, Day 1, 60 minutes): 75.4 mmHg
Diastolic Blood Pressure: Median ([1]; 30 mg, Day 1, 60 minutes): 75.0 mmHg
Diastolic Blood Pressure: Mean ([1]; 30 mg, Day 1, 2 hours): 77.3 mmHg
Diastolic Blood Pressure: Median ([1]; 30 mg, Day 1, 2 hours): 78.0 mmHg
Diastolic Blood Pressure: Mean ([1]; 30 mg, Day 1, 4 hours): 76.1 mmHg
Diastolic Blood Pressure: Median ([1]; 30 mg, Day 1, 4 hours): 76.0 mmHg
Diastolic Blood Pressure: Mean ([1]; 30 mg, Day 1, 6 hours): 75.2 mmHg
Diastolic Blood Pressure: Median ([1]; 30 mg, Day 1, 6 hours): 75.0 mmHg
Diastolic Blood Pressure: Mean ([1]; 30 mg, Day 2 - Discharge): 74.7 mmHg
Diastolic Blood Pressure: Median ([1]; 30 mg, Day 2 - Discharge): 75.0 mmHg
Diastolic Blood Pressure: Mean ([1]; 30 mg, Day 8): 75.8 mmHg
Diastolic Blood Pressure: Median ([1]; 30 mg, Day 8): 78.0 mmHg
Diastolic Blood Pressure: Mean ([1]; 30 mg, Day 15): 78.9 mmHg
Diastolic Blood Pressure: Median ([1]; 30 mg, Day 15): 79.0 mmHg
Diastolic Blood Pressure: Change from Baseline, Mean ([1]; 30 mg, to Day 1, 15 minutes): 0.5 mmHg
Diastolic Blood Pressure: Change from Baseline, Median ([1]; 30 mg, to Day 1, 15 minutes): 2.0 mmHg
Diastolic Blood Pressure: Change from Baseline, Mean ([1]; 30 mg, to Day 1, 40 minutes): 1.0 mmHg
Diastolic Blood Pressure: Change from Baseline, Median ([1]; 30 mg, to Day 1, 40 minutes): 1.0 mmHg
Diastolic Blood Pressure: Change from Baseline, Mean ([1]; 30 mg, to Day 1, 60 minutes): −1.2 mmHg
Diastolic Blood Pressure: Change from Baseline, Median ([1]; 30 mg, to Day 1, 60 minutes): −1.5 mmHg
Diastolic Blood Pressure: Change from Baseline, Mean ([1]; 30 mg, to Day 1, 2 hours): 0.5 mmHg
Diastolic Blood Pressure: Change from Baseline, Median ([1]; 30 mg, to Day 1, 2 hours): −1.0 mmHg
Diastolic Blood Pressure: Change from Baseline, Mean ([1]; 30 mg, to Day 1, 4 hours): −0.6 mmHg
Diastolic Blood Pressure: Change from Baseline, Median ([1]; 30 mg, to Day 1, 4 hours): −1.0 mmHg
Diastolic Blood Pressure: Change from Baseline, Mean ([1]; 30 mg, to Day 1, 6 hours): −1.5 mmHg
Diastolic Blood Pressure: Change from Baseline, Median ([1]; 30 mg, to Day 1, 6 hours): −3.0 mmHg
Diastolic Blood Pressure: Change from Baseline, Mean ([1]; 30 mg, to Day 2 - Discharge): −2.0 mmHg
Diastolic Blood Pressure: Change from Baseline, Median ([1]; 30 mg, to Day 2 - Discharge): −2.0 mmHg
Diastolic Blood Pressure: Change from Baseline, Mean ([1]; 30 mg, to Day 8): −1.0 mmHg
Diastolic Blood Pressure: Change from Baseline, Median ([1]; 30 mg, to Day 8): −1.0 mmHg
Diastolic Blood Pressure: Change from Baseline, Mean ([1]; 30 mg, to Day 15): 2.1 mmHg
Diastolic Blood Pressure: Change from Baseline, Median ([1]; 30 mg, to Day 15): 1.0 mmHg
Subjects with change from baseline diastolic blood pressure >25 mmHg, number ([1]; 60 mg): 1 n
Subjects with change from baseline diastolic blood pressure >25 mmHg, percent ([1]; 60 mg): 2.9%
Subjects with post-baseline diastolic blood pressure >110 mmHg, number ([1]; 60 mg): 0 n
Subjects with post-baseline diastolic blood pressure >110 mmHg, percent ([1]; 60 mg): 0.0%
Diastolic Blood Pressure: Mean ([1]; 60 mg, Day 1, 15 minutes): 78.8 mmHg
Diastolic Blood Pressure: Median ([1]; 60 mg, Day 1, 15 minutes): 79.5 mmHg
Diastolic Blood Pressure: Mean ([1]; 60 mg, Day 1, 40 minutes): 78.1 mmHg
Diastolic Blood Pressure: Median ([1]; 60 mg, Day 1, 40 minutes): 78.0 mmHg
Diastolic Blood Pressure: Mean ([1]; 60 mg, Day 1, 60 minutes): 79.5 mmHg
Diastolic Blood Pressure: Median ([1]; 60 mg, Day 1, 60 minutes): 77.0 mmHg
Diastolic Blood Pressure: Mean ([1]; 60 mg, Day 1, 2 hours): 75.7 mmHg
Diastolic Blood Pressure: Median ([1]; 60 mg, Day 1, 2 hours): 75.0 mmHg
Diastolic Blood Pressure: Mean ([1]; 60 mg, Day 1, 4 hours): 75.1 mmHg
Diastolic Blood Pressure: Median ([1]; 60 mg, Day 1, 4 hours): 74.0 mmHg
Diastolic Blood Pressure: Mean ([1]; 60 mg, Day 1, 6 hours): 75.8 mmHg
Diastolic Blood Pressure: Median ([1]; 60 mg, Day 1, 6 hours): 76.5 mmHg
Diastolic Blood Pressure: Mean ([1]; 60 mg, Day 2 - Discharge): 77.2 mmHg
Diastolic Blood Pressure: Median ([1]; 60 mg, Day 2 - Discharge): 77.0 mmHg
Diastolic Blood Pressure: Mean ([1]; 60 mg, Day 8): 78.7 mmHg
Diastolic Blood Pressure: Median ([1]; 60 mg, Day 8): 78.0 mmHg
Diastolic Blood Pressure: Mean ([1]; 60 mg, Day 15): 77.5 mmHg
Diastolic Blood Pressure: Median ([1]; 60 mg, Day 15): 78.0 mmHg
Diastolic Blood Pressure: Change from Baseline, Mean ([1]; 60 mg, to Day 1, 15 minutes): 2.2 mmHg
Diastolic Blood Pressure: Change from Baseline, Median ([1]; 60 mg, to Day 1, 15 minutes): 1.5 mmHg
Diastolic Blood Pressure: Change from Baseline, Mean ([1]; 60 mg, to Day 1, 40 minutes): 2.4 mmHg
Diastolic Blood Pressure: Change from Baseline, Median ([1]; 60 mg, to Day 1, 40 minutes): 2.0 mmHg
Diastolic Blood Pressure: Change from Baseline, Mean ([1]; 60 mg, to Day 1, 60 minutes): 3.2 mmHg
Diastolic Blood Pressure: Change from Baseline, Median ([1]; 60 mg, to Day 1, 60 minutes): 4.0 mmHg
Diastolic Blood Pressure: Change from Baseline, Mean ([1]; 60 mg, to Day 1, 2 hours): −0.1 mmHg
Diastolic Blood Pressure: Change from Baseline, Median ([1]; 60 mg, to Day 1, 2 hours): 0.0 mmHg
Diastolic Blood Pressure: Change from Baseline, Mean ([1]; 60 mg, to Day 1, 4 hours): −0.6 mmHg
Diastolic Blood Pressure: Change from Baseline, Median ([1]; 60 mg, to Day 1, 4 hours): 0.0 mmHg
Diastolic Blood Pressure: Change from Baseline, Mean ([1]; 60 mg, to Day 1, 6 hours): −0.0 mmHg
Diastolic Blood Pressure: Change from Baseline, Median ([1]; 60 mg, to Day 1, 6 hours): −1.0 mmHg
Diastolic Blood Pressure: Change from Baseline, Mean ([1]; 60 mg, to Day 2 - Discharge): 1.5 mmHg
Diastolic Blood Pressure: Change from Baseline, Median ([1]; 60 mg, to Day 2 - Discharge): 1.0 mmHg
Diastolic Blood Pressure: Change from Baseline, Mean ([1]; 60 mg, to Day 8): 3.0 mmHg
Diastolic Blood Pressure: Change from Baseline, Median ([1]; 60 mg, to Day 8): 3.0 mmHg
Diastolic Blood Pressure: Change from Baseline, Mean ([1]; 60 mg, to Day 15): 1.7 mmHg
Diastolic Blood Pressure: Change from Baseline, Median ([1]; 60 mg, to Day 15): 1.0 mmHg
CYP3A4 induction [2]: inducer
